One data set concerns the target Cytochrome P450 2D6 (Homo sapiens, UniProt P10635). Description: Inhibition of CYP2D6 in human liver microsomes incubated for 5 mins in presence of NADPH by LC-MS/MS analysis. The format is ADME, Microsome. For orientation: Liver microsomes are a subcellular fraction often used to study metabolism.
Data set [1] has as its target T1, Protein cereblon/Estrogen receptor (Homo sapiens, UniProt P03372+Q96SW2). Nature of the data set: PROTAC activity at CRBN/ERalpha in human MCF7 cells assessed as reduction ER level measured for 5 hrs by Western blot analysis. Type of data set: cell-based. As to conditions: dose 0.5-500 nM. (A western blot detects proteins with antibodies after separation by electrophoresis.)

Data set [2] can be described thus: Plasma protein binding in mouse. Type of data set: ADME, cell-free.
Another data set relates to T47D. Description: PROTAC activity at CRBN/ ERalpha D538G mutant in human T47D cells assessed as reduction in ERalpha protein level at 10 to 100 nM measured at 7 hrs by Western blot analysis. The format is cell-based. More on the design: scale not given: the % may be the effect or the level left. As to conditions: dose 10-100 nM.
The target in data set [3] is T1, Protein cereblon/Estrogen receptor. Nature of the data set: PROTAC activity at CRBN/ERalpha in human MCF7 cells assessed as reduction in ERalpha protein level at 0.3 nM measured at 4 hrs by Western blot analysis. The format is cell-based.
Data set [4] shares this target. Description: PROTAC activity at CRBN/ERalpha in human T47D cells assessed as reduction in ERalpha protein level at 3 nM measured at 4 hrs by Western blot analysis. Type of data set: cell-based.
Data set [5] in a line: Oral bioavailability in dog at 3 mg/kg measured upto 24 hrs by LC-MS/MS analysis. The format is ADME, organism-based, Canis lupus familiaris. As to conditions: in vivo.
For data set [6], the target named is T1, Protein cereblon/Estrogen receptor. Nature of the data set: PROTAC activity at CRBN/ERalpha in human MCF7 cells assessed as reduction ER level at 100 nM measured for 5 hrs by Western blot analysis. The format is cell-based.
Data set [7] in a line: Drug concentration in SCID mouse plasma at 30 mg/kg, po administered once daily for 3 days measured after 24 hrs by LC-MS/MS analysis. The format is ADME, organism-based.
The target in a further data set is T2, Cytochrome P450 2B6 (Homo sapiens, UniProt P20813).
T2 sequence (P20813 whole entry): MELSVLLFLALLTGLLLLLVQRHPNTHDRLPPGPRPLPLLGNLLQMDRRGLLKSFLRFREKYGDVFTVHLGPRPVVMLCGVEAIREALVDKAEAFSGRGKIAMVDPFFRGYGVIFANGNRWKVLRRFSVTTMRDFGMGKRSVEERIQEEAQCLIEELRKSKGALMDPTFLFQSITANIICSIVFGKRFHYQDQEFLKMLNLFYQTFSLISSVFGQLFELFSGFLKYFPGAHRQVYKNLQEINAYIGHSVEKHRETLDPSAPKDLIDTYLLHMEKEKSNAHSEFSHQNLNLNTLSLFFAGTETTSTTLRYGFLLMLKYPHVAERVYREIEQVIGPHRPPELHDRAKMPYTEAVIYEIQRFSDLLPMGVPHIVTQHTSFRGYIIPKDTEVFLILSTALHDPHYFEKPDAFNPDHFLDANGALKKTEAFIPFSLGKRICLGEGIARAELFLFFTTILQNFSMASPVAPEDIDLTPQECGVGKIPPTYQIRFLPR
Nature of the data set: Inhibition of CYP2B6 in human liver microsomes preincubated for 5 mins followed by NADPH addition and measured after 10 mins by LC-MS/MS analysis. Type of data set: ADME, Microsome.

Data set [8] addresses T1, Protein cereblon/Estrogen receptor. Nature of the data set: PROTAC activity at CRBN/ERalpha in human MCF7 cells assessed as reduction in ERalpha protein level at 5 nM measured for 4 hrs in presence of lasofoxifene by Western blot analysis. The format is cell-based.
Data set [9] can be described thus: Metabolic stability human liver microsome assessed as half life. The format is ADME. The conditions noted are these: microsomes.
Data set [10] in a line: Drug concentration in SCID mouse plasma at 10 mg/kg, po administered once daily measured at 24 hrs by LC-MS/MS analysis. Type of data set: ADME, organism-based.
Data set [11] deals with T1, Protein cereblon/Estrogen receptor. Description: In-vivo PROTAC activity at CRBN/ERalpha in SCID mouse xenografted with human MCF7 cells assessed as reduction in ERalpha level in tumor at 30 mg/kg, po administered daily for 3 days and measured after 24 hrs by Western blot analysis. The format is functional, organism-based. More on the design: scale not given: the % may be the effect or the level left. The conditions noted are these: time 96.0 hrs. A general note: Xenograft models place foreign cells or tissue in a host animal.

A short description of data set [12]: Drug concentration in SCID mouse tumor at 30 mg/kg, po administered once daily for 3 days measured after 24 hrs by LC-MS/MS analysis. Type of data set: ADME, organism-based, Neoplasm. As to conditions: read-out: Ct.
Data set [13] has as its system Protein cereblon/Estrogen receptor (Homo sapiens), P03372+Q96SW2 [Y537S]. Nature of the data set: In vivo PROTAC activity at CRBN/ESR1 Y537S mutant in SCID mouse xenografted with human MCF7 cells assessed as reduction in ESR1 Y537S level in tumor at 10 to 30 mg/kg, po administered once daily for 3 days measured after 24 hrs by Western blot analysis. The format is functional, organism-based. Further details: scale not given: the % may be the effect or the level left. As to conditions: dose 10-30 mg/kg, time […].

Calls of active or inactive are those of the source. No cut-off for these calls is given here.

T1 sequence (P03372 whole entry, looked up): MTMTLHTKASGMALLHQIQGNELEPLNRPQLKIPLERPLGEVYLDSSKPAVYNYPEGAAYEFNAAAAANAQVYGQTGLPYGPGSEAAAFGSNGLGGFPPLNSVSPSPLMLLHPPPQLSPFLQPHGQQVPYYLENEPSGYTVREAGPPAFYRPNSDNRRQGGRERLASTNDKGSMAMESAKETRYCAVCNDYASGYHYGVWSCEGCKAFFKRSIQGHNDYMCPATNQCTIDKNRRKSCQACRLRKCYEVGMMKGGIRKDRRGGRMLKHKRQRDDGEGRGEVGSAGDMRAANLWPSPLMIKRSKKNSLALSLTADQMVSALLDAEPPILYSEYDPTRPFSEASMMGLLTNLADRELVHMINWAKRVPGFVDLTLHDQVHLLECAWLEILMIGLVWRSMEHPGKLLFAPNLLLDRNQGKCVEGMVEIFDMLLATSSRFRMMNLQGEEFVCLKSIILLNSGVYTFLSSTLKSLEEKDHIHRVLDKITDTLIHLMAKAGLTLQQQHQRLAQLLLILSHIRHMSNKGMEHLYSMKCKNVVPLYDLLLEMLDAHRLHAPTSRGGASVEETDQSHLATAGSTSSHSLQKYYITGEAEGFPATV
T1 sequence (Q96SW2 whole entry, looked up): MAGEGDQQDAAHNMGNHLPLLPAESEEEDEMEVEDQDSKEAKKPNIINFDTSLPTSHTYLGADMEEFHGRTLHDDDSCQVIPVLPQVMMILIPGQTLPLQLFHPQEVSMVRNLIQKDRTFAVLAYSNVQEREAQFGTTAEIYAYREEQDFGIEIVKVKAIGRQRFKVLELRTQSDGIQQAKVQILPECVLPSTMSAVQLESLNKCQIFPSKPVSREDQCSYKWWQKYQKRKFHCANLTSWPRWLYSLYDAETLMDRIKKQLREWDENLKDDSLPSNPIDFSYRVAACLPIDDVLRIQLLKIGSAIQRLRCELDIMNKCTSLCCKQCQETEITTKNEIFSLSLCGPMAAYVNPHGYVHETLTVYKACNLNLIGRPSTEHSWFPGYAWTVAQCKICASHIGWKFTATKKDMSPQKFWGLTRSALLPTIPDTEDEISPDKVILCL
Chain of Cytochrome P450 2D6 (P10635 whole entry): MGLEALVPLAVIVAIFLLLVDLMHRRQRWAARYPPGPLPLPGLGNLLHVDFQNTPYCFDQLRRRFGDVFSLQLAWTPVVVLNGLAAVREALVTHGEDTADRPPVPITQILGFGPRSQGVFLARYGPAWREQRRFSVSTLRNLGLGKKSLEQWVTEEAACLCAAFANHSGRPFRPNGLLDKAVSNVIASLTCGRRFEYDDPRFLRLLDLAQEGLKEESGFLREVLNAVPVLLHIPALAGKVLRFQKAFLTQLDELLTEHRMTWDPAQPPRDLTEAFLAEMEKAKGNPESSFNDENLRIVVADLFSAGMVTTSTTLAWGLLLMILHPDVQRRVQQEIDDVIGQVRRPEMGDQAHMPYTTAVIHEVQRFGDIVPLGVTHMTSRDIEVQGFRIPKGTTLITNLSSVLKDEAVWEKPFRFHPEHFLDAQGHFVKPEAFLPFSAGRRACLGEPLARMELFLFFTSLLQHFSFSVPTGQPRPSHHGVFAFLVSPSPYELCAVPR

In general, IC50 refers to the concentration that inhibits the measured activity by half. As to `O=C1CC[C@H](N2Cc3c(ccc4c3OCC43CCN(C[C@@H]4CCC5(CCN(c6ccc([C@@H]7c8ccc(O)cc8CC[C@@H]7c7ccccc7)cc6)CC5)OC4)CC3)C2=O)C(=O)N1`, the half-maximal inhibitory concentration (IC50) on Cytochrome P450 2D6 is greater than 10 µM; on Cytochrome P450 2B6, 2.5 µM. In addition, the Activity result in data set [1] is “Dose-dependent-effect”; in the data set with T47D, greater than 80%; in data set [6], “No effect”; in [11], 29%; in data set [13], 74%. Moreover, the PPB in data set [2] is reported as 99%. For the same compound, the result in data set [3] and in [4] was Active. Moreover, in data set [5], the F is 49%. The concentration at 96 h in [7] is 72 ng/mL; in data set [12] it was 1030 ng/mL. For the same compound, in [8], the outcome was inactive. Further, the t1/2 in data set [9] was greater than 1 h. In addition, the concentration at 24 h in data set [10] came to 7 ng/mL.

The record behind these values is ChEMBL document CHEMBL6083286, “Discovery of ERD-12310A as an Exceptionally Potent and Orally Efficacious PROTAC Degrader of Estrogen Receptor α (ERα)” (J Med Chem, 2024).
